Data: patent US10004232B2 (priority 2011, dated 2018)

Tests used:
Phytophthora infestans = assay type: in vivo; details: young tomato plants, protective spray, active ingredient concentration 100 ppm, evaluation 7 days after inoculation
[1] = logP determination by HPLC on reversed-phase columns (C 18), EEC Directive 79/831 Annex V.A8; assay type: physicochemical; details: for chromatographic logP: reversed-phase C18 HPLC column
From the text: Calibration takes place using unbranched alkan-2-ones (having 3 to 16 carbon atoms) whose log P values are known (log P values determined on the basis of the retention times, by linear interpolation between two successive alkanones).

Plasmopara viticola = experiment: Plasmopara test (grapevine) / protective; assay type: in vivo; details: young grapevine plants, protective spray, active ingredient concentration 10 ppm, evaluation 6 days after inoculation
Procedure: Plasmopara Test (Grapevine)/Protective
Solvent: 24.5 parts by weight of acetone
• 24.5 parts by weight of dimethylacetamide Emulsifier: 1 part by weight of alkylaryl polyglycol ether
An appropriate preparation of active ingredient is prepared by mixing 1 part by weight of active ingredient with the specified amounts of solvent and emulsifier, and diluting the concentrate with water to the desired concentration.
To test for protective activity, young plants are sprayed with the preparation of active ingredient at the specified application rate. After the spray coating has dried on, the plants are inoculated with an aqueous spore suspension of Plasmopara viticola and then spend 1 day in an incubation cabinet at about 20° C. and 100% relative atmospheric humidity. The plants are subsequently placed for 4 days in a greenhouse at about 21° C. and about 90% atmospheric humidity. The plants are then moistened and placed in an incubation cabin for 1 day.
Evaluation takes place 6 days after inoculation. Here, 0% denotes an efficacy which corresponds to that of the control, whereas an efficacy of 100% means that no infestation is observed.

[2] = [a] LC-MS in the acidic range, pH 2.7, 0.1% aqueous formic acid and acetonitrile
[3] = [b] LC-MS in the neutral range, pH 7.8, 0.001 molar aqueous ammonium hydrogencarbonate and acetonitrile

Structure (SMILES)	Eff. % (Phytophthora infestans) [%]	LogP [1, 2]	LogP [1, 3]	Eff. % (Plasmopara viticola) [%]	chromatographic logP [1, 2]	chromatographic logP [1, 3]
C#CCOc1cc(F)c(C2CC(c3csc(C4CCN(C(=O)Cn5nc(C(F)F)cc5C(F)F)CC4)n3)=NO2)c(F)c1 (racemic) [Example I-3]	98	3.3	3.26	100		
O=C(Cn1nc(C(F)F)cc1C(F)F)N1CCC(c2nc(C3=NOC(c4c(OC/C=C\Cl)ccc(F)c4F)C3)cs2)CC1 (racemic) [Example I-6]		3.79	3.71			
C=C(Cl)COc1ccc(F)c(F)c1C1CC(c2csc(C3CCN(C(=O)Cn4nc(C(F)F)cc4C(F)F)CC3)n2)=NO1 (racemic) [Example I-7]		3.68	3.69	100		
C#CCOc1ccc(F)c(F)c1C1CC(c2csc(C3CCN(C(=O)Cn4nc(C(F)F)cc4C(F)F)CC3)n2)=NO1 (racemic) [Example I-8]		3.3	3.27	100		
O=C(Oc1cc(F)c(C2CC(c3csc(C4CCN(C(=O)Cn5nc(C(F)F)cc5C(F)F)CC4)n3)=NO2)c(F)c1)C1CC1 (racemic) [Example I-9]		3.53^[a]				
C#CCOc1c(F)cc(F)cc1C1CC(c2csc(C3CCN(C(=O)Cn4nc(C(F)F)cc4C(F)F)CC3)n2)=NO1 (racemic) [Example I-10]		3.58	3.51			
C=CCOc1cc(F)c(C2CC(c3csc(C4CCN(C(=O)Cn5nc(C(F)F)cc5C(F)F)CC4)n3)=NO2)c(F)c1 (racemic) [Example I-11]		3.7^[a]				
C#CCOc1c(F)ccc(F)c1C1CC(c2csc(C3CCN(C(=O)Cn4nc(C(F)F)cc4C(F)F)CC3)n2)=NO1 (racemic) [Example I-12]		3.31	3.3			
C#CCOc1cc(F)cc(F)c1C1CC(c2csc(C3CCN(C(=O)Cn4nc(C(F)F)cc4C(F)F)CC3)n2)=NO1 (racemic) [Example I-13]		3.32^[a]		100		
O=Cc1cc(F)c(C2CC(c3csc(C4CCN(C(=O)Cn5nc(C(F)F)cc5C(F)F)CC4)n3)=NO2)c(F)c1 (racemic) [Example I-14]		2.93	2.87			
O=C(Cn1nc(C(F)F)cc1C(F)F)N1CCC(c2nc(C3=NOC(c4c(F)cc(F)cc4OCC4CC4)C3)cs2)CC1 (racemic) [Example I-15]		3.81	3.76			
O=C(Oc1cc(F)cc(F)c1C1CC(c2csc(C3CCN(C(=O)Cn4nc(C(F)F)cc4C(F)F)CC3)n2)=NO1)C1CC1 (racemic) [Example I-16]		3.5	3.42			
C=CCOc1ccc(F)c(F)c1C1CC(c2csc(C3CCN(C(=O)Cn4nc(C(F)F)cc4C(F)F)CC3)n2)=NO1 (racemic) [Example I-17]		3.53	3.56	100		
C=CCOc1cc(Cl)cc(Cl)c1C1CC(c2csc(C3CCN(C(=O)Cn4nc(C(F)F)cc4C(F)F)CC3)n2)=NO1 (racemic) [Example I-18]	95	4.29	4.2	96		
C=C(Cl)COc1cc(F)cc(F)c1C1CC(c2csc(C3CCN(C(=O)Cn4nc(C(F)F)cc4C(F)F)CC3)n2)=NO1 (racemic) [Example I-19]		3.79	3.7	100		
C=CCOc1cc(F)cc(F)c1C1CC(c2csc(C3CCN(C(=O)Cn4nc(C(F)F)cc4C(F)F)CC3)n2)=NO1 (racemic) [Example I-20]		3.67	3.58	100		
C#CCOc1cc(Cl)cc(Cl)c1C1CC(c2csc(C3CCN(C(=O)Cn4nc(C(F)F)cc4C(F)F)CC3)n2)=NO1 (racemic) [Example I-21]	95	3.94	3.85	100		
C#CCOc1cc(C)c(C)cc1C1(C)CC(c2csc(C3CCN(C(=O)Cn4nc(C(F)F)cc4C(F)F)CC3)n2)=NO1 (stereo not drawn) [Example I-1, 2-[3,5-Bis(difluoromethyl)-1H-pyrazol-1-yl]-1-[4-(4-{5-[4,5-dimethyl-2-(prop-2-yn-1-yloxy)phenyl]-5-methyl-4,5-dihydro-1,2-oxazol-3-yl}-1,3-thiazol-2-yl)piperidin-1-yl]ethanone]	98				4.1	4.04
C#CCOc1ccc(F)c(C2CC(c3csc(C4CCN(C(=O)Cn5nc(C(F)F)cc5C(F)F)CC4)n3)=NO2)c1F (stereo not drawn) [Example I-2, 2-[3,5-Bis(difluoromethyl)-1H-pyrazol-1-yl]-1-[4-(4-{5-[2,6-difluoro-3-(prop-2-yn-1-yloxy)phenyl]-4,5-dihydro-1,2-oxazol-3-yl}-1,3-thiazol-2-yl)piperidin-1-yl]ethanone]	94			100	3.26	3.18
C=CCOc1ccc(F)c(C2CC(c3csc(C4CCN(C(=O)Cn5nc(C(F)F)cc5C(F)F)CC4)n3)=NO2)c1F (stereo not drawn) [Example I-4, 1-[4-(4-{5-[3-(Allyloxy)-2,6-difluorophenyl]-4,5-dihydro-1,2-oxazol-3-yl}-1,3-thiazol-2-yl)piperidin-1-yl]-2-[3,5-bis(difluoromethyl)-1H-pyrazol-1-yl]ethanone]	95			100	3.59	3.51
CS(=O)(=O)Nc1cc(F)c(C2CC(c3csc(C4CCN(C(=O)Cn5nc(C(F)F)cc5C(F)F)CC4)n3)=NO2)c(F)c1 (stereo not drawn) [Example I-5, N-(4-{3-[2-(1-{[3,5-Bis(difluoromethyl)-1H-pyrazol-1-yl]acetyl}piperidin-4-yl)-1,3-thiazol-4-yl]-4,5-dihydro-1,2-oxazol-5-yl}-3,5-difluorophenyl)methanesulphonamide]	95			96	2.63	
